According to patent publication US12410157B2, “Compound useful as toll-like receptor 7 activation inhibitor” (TOYAMA PREFECTURAL UNIVERSITY, priority 2020, dated 2025):
“And” between values parts separate entries of the source, which are not always exact repeats. Equal values may be shown once. “Also recorded” adds a separate entry of the source. Where a name gives a salt, the structure may show the parent alone.

Assays:
TLR7 [1] = biological target: T1, TLR7 (Mus musculus, UniProt P58681); experiment: TLR7 inhibition (R848-induced serum IFN-α) by intraperitoneal administration in mice; format: in vivo, mice (C57BL/6N); conditions: Example 13
T1 construct: from tissue; host or cells: whole animal, C57BL/6N mice (serum IFN-α after R848)
T1 sequence (P58681 27-1050): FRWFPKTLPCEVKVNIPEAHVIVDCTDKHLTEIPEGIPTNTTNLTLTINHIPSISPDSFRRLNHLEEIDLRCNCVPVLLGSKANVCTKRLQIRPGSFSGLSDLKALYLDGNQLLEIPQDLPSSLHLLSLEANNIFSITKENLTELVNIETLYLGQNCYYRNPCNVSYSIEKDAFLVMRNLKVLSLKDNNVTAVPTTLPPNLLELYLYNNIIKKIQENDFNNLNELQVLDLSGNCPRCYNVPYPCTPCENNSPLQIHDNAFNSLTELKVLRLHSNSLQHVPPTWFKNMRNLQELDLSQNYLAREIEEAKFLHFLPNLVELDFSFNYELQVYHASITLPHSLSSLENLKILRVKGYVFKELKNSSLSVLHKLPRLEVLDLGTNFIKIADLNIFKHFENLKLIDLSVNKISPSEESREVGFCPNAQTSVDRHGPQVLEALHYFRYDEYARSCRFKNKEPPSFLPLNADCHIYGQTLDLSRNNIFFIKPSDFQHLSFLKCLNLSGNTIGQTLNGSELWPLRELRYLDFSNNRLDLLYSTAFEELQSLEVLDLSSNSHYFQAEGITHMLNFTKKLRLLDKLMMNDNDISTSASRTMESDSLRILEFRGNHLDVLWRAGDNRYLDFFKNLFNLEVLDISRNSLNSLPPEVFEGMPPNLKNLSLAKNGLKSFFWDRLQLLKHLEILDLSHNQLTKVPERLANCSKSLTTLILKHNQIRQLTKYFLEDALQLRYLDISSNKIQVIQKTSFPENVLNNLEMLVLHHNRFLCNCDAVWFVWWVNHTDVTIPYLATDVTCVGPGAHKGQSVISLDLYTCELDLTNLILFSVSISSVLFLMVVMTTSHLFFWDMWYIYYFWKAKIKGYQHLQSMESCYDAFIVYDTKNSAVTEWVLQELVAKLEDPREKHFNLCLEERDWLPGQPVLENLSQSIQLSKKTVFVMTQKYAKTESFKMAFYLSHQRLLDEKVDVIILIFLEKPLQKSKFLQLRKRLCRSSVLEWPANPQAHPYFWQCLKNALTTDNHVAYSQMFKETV
Protocol: Normal mice (C57BL/6N, 11 weeks old, female) were administered B2-24-4-5A·HCOOH (1, 5, 10, 100 and 1000 μg) or hydroxychloroquine sulfate (HCQ, 1000 μg) as a comparison drug intraperitoneally, followed by 5 μg of R848 after 30 minutes. The solvent was saline solution. 1 hour after R848 administration, blood was collected and the concentration of IFN-α in the serum was quantified using ELISA (used kit: Mouse IFN alpha Platinum ELISA (trade name), eBioscience). The plots in FIG. 7 represent the data for each individual, each bold line represents the mean value of each group data, and each error bar represents the standard error of each group data.
The same method as in Example 13 was used to study the TLR7 inhibition effect of intraperitoneal administration of B2-24-4·HCl, B2-24-4-5A or B2-24-4-5A·HCOOH in mice. B2-24-4·HCl, B2-24-4-5A and B2-24-4-5A·HCOOH were administered at a dose of 10 μg. The plots in FIG. 8 represent the data for each individual, each bold line represents the mean of each group data, and each error bar represents the standard error of each group data.

[2] = system: systemic lupus erythematosus model mice (NZBWF1); experiment: Therapeutic effect in mouse model of spontaneous systemic lupus erythematosus; format: in vivo
Protocol: Systemic lupus erythematosus model mice (NZBWF1, 20 weeks old, female, n=55) were divided into saline-administered group (control, n=25), B2-24-4-5A·HCOOH-administered group (n=10), B2-24-4·HCOOH-administered group (n=5) and HCQ-administered group (n=15). The saline-administered group received saline (100 l) orally once a day, every day; the B2-24-4-5A·HCOOH-administered group received 10 mg/kg of B2-24-4-5A·HCOOH (100 l) orally once a day, every day; the B2-24-4·HCOOH-administered group received 10 mg/kg of B2-24-4·HCOOH (100 l) orally once a day, every day; the HCQ-administered group received 10 mg/kg of HCQ (100 l) orally once a day, every day. Fifteen weeks after the start of treatment, urine was collected from surviving mice in the saline-administered group (control, n=17), B2-24-4-5A·HCOOH-administered group (n=10), B2-24-4·HCOOH-administered group (n=5), and HCQ-administered group (n=12), and the mice were euthanized. After euthanasia, blood was drawn from the abdominal aorta of the mice, and the kidneys and spleen were removed.
Mice that died of natural causes during the 15-week period from the start of treatment were counted as deaths, and survival analysis was performed using the Kaplan Meier method. Blood collected from the abdominal aorta of each mouse, excluding the deceased cases, was centrifuged and serum was prepared. Determination of urea nitrogen and creatinine levels in serum was entrusted to Oriental Yeast Co. Albumin levels in urine were determined by ELISA (used kit: Levis Urinary Albumin-Mouse (S-type) (trade name) (Fujifilm Wako Shibayagi Corporation)). The removed kidneys were fixed with 4% (w/v) paraformaldehyde, and immunohistochemical staining was entrusted to Morpho Technology, Inc. In PAS-stained kidney tissue sections, histological findings of 100 glomeruli were evaluated. For increased cells and substrate in the mesangial area, endothelial cell swelling and cellular infiltration of the capillary lumen (intratubular proliferation), and glomeruli with inflammatory crescents (extratubular proliferation), each of the 100 glomeruli was assigned a grade from grade 0 to grade 2 according to severity and scored on a 6-point scale.
FIG. 10F is a photograph showing C3 deposition in the glomeruli of a mouse (#1) in the saline-administered group, a mouse (#10) in the B2-24-4-5A·HCOOH-administered group, a mouse (#4) in the B2-24-4·HCOOH-administered group and a mouse (#14) in the HCQ-administered group. […] In the renal tissue sections of a mouse (#1) in the saline-administered group, findings of active glomerulonephritis such as diffuse mesangial and intratubular proliferation were observed. […] The plots in FIGS. 10B, 10C, and 10D show the data for each individual, each bold line is the mean of the group data, and each error bar standard error. Scale bars in FIGS. 10E and 10F represent 100 μm. […]

TLR7 [3] = biological target: T2, TLR7 (Homo sapiens, UniProt Q9NYK1); experiment: TLR7 inhibitory effect (IL-6) in PBMCs from patients with systemic lupus erythematosus; format: cell-based; conditions: SLE patient PBMCs
T2 construct: PBMCs were isolated from 7 mL of blood collected from patients with systemic lupus erythematosus; endogenous in cells; host or cells: PBMCs from patients with systemic lupus erythematosus
T2 sequence (Q9NYK1 27-1049): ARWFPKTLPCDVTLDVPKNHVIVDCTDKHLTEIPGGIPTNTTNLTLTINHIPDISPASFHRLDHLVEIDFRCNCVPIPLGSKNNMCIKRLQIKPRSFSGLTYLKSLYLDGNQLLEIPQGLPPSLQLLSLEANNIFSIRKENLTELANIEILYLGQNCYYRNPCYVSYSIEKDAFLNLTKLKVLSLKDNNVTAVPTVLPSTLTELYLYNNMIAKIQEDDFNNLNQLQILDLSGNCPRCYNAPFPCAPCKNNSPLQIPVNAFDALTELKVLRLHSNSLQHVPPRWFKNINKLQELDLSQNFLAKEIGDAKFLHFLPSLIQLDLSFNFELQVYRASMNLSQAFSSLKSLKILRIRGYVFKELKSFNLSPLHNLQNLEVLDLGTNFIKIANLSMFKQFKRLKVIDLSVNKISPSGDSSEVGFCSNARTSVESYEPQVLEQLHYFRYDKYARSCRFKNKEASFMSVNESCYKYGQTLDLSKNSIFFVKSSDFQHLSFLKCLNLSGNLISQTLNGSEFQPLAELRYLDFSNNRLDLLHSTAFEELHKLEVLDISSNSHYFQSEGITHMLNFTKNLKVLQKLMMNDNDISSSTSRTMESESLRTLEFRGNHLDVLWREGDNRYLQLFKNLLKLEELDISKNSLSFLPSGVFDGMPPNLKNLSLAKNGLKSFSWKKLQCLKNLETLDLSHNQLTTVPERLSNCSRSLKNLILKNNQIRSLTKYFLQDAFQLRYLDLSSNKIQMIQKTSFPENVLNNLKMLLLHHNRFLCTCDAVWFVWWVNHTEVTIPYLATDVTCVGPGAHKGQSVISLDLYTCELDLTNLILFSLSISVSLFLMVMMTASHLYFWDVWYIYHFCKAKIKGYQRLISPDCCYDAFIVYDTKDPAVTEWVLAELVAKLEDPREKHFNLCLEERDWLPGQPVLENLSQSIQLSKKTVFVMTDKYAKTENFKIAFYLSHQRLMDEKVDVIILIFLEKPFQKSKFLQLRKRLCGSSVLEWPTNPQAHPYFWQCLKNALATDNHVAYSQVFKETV
Protocol: The TLR7 inhibitory effect of B2-24-4-5A·HCOOH on PBMCs derived from patients with systemic lupus erythematosus was studied. PBMCs were isolated from 7 mL of blood collected from patients with systemic lupus erythematosus. Isolated PBMCs were spread into each well of a 96-well plate containing RPMI 1640 medium containing 10% (v/v) fetal calf serum (FCS), penicillin, streptomycin, L-glutamic acid, and 2-mercaptoethanol at 0.5×10^5/100 μL and incubated at 37° C. in the presence of 5% (v/v) CO2. 50 μL of B2-24-4-5A·HCOOH, B2-24-4·HCl or the comparative drug hydroxychloroquine sulfate (HCQ) was added to each well to achieve a final concentration of 0.1 μM, 0.5 μM, 1 μM, 5 μM, 10 μM or 50 μM and incubated for 30 minutes. The TLR7 ligand, Gardiquimod (Invivogen), was added at a final concentration of 3 μg/mL and incubated for 24 hours. After incubation, all culture media were collected and the concentration of IL-6 in the culture medium was quantified using ELISA (used kit: human IL-6 DuoSet ELISA (trade name), manufactured by R&D Systems).

[4] = biological target: B lymphocyte stimulator (BLyS) (Homo sapiens, UniProt Q9Y275); conditions: after 52 weeks of intravenous administration (10 mg/kg); cited from earlier work
Sequence of B lymphocyte stimulator (BLyS) (Q9Y275 134-285 limits assumed): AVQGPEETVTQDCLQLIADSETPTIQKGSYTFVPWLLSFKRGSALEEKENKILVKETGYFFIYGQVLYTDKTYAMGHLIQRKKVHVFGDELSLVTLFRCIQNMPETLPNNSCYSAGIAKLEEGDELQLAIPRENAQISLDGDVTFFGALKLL

Compound: C=C(C)[C@@H]1CC[C@]2(COC(=O)C2)C[C@H]1c1ccc(CN2CCNCC2)cc1 [B2-24-4-5A]
- Order of strength of the effect on IFN-α production (TLR7 [1]; 10 μg, FIG. 8): stronger with B2-24-4-5A·HCOOH, B2-24-4-5A and B2-24-4·HCl in that order
- IFN-α production induced by R848 (TLR7 [1]; dose of 10 μg intraperitoneally): attenuated

Compound: CCN(CCO)CCCC(C)Nc1ccnc2cc(Cl)ccc12 (centres unmarked) [HCQ, hydroxychloroquine sulfate]
- Surviving mice fifteen weeks after the start of treatment ([2]; 10 mg/kg orally once a day, groups started with n=10, n=5, n=15 (HCQ)): 12
- Tubulo-interstitial inflammation ([2]; per mouse): Not found; also recorded: Found
- score ([2]; per mouse, histological score on a 6-point scale): 1.74 and 0.70 and 0.00 and 1.64 and 0.30 and 2.58 and 0.07 and 0.14 and 3.14 and 0.37 and 2.19 and 0.18
- Inside 0 ([2]; per mouse, of 100 glomeruli, endothelial cell swelling and cellular infiltration of capillary lumen, Grade 0): 43 and 87 and 100 (2×) and 38 and 95 and 12 and 99 and 15 and 96 and 22 and 98
- Inside 1 ([2]; per mouse, of 100 glomeruli, endothelial cell swelling and cellular infiltration of capillary lumen, Grade 1): 38 and 13 and 0 (2×) and 47 and 5 and 36 and 1 and 64 and 4 and 58 and 2
- Inside 2 ([2]; per mouse, of 100 glomeruli, endothelial cell swelling and cellular infiltration of capillary lumen, Grade 2): 19 and 0 (7×) and 15 and 52 and 21 and 20
- Outside 0 ([2]; per mouse, of 100 glomeruli, glomerulus with semilunar, Grade 0): 100 (10×) and 53 and 96
- Outside 1 ([2]; per mouse, of 100 glomeruli, glomerulus with semilunar, Grade 1): 0 (10×) and 26 and 4
- Outside 2 ([2]; per mouse, of 100 glomeruli, glomerulus with semilunar, Grade 2): 0 (11×) and 21
- Mes0 ([2]; per mouse, of 100 glomeruli, increase in cells and substrates in the mesangium region, Grade 0: None, 10 mg/kg orally, 15 weeks, 10 mg/kg): 15 and 43 and 100 and 16 and 75 and 8 and 93 and 87 and 7 and 68 and 20 and 84
- Mes1 ([2]; per mouse, of 100 glomeruli, mesangium region, Grade 1: Moderate or lower): 72 and 57 and 0 and 81 and 25 and 66 and 7 and 13 and 46 and 31 and 43 and 16
- Mes2 ([2]; per mouse, of 100 glomeruli, mesangium region, Grade 2: Moderate or higher): 13 and 0 (6×) and 3 and 26 and 47 and 1 and 37
- Order of strength of the effect on IL-6 production (TLR7 [3]; FIG. 4): stronger for B2-24-4·HCl, B2-24-4-5A·HCOOH, and HCQ, in that order
- IL-6 production induced by gardiquimod stimulation (TLR7 [3]; 0.1-50 μM, Gardiquimod 3 μg/mL, 24 hours): attenuated

Compound: belimumab
- Responder rate [4]: 54%
